Values quoted from earlier work, collected in paper PMC3954986 (Chemmedchem, 2013).

Test system: PLpro
Conditions: cited from earlier work

Row | Compound | IC50
1 | Sc1ncnc2nc[nH]c12 [Inhibitor 6MP, 6‐mercaptopurine] | 5 to 20 µM
2 | Nc1nc2nc[nH]c2c(=S)[nH]1 [Inhibitor 6TG, 6‐thioguanine] | 5 to 20 µM
